Data on eight compounds can be found in ChEMBL document CHEMBL5356980, “Linker optimization and activity validation of a cell surface vimentin targeted homo-dimeric peptoid antagonist for lung cancer stem cells” (Bioorg Med Chem, 2024).

Molecules are shown by their SMILES. Calls of active or inactive are those of the source. No cut-off for these calls is given here.

One test deals with NCI-H1299. Kind of test: Antiproliferative activity against human NCI-H1299 cells assessed as reduction in cell viability incubated for 4 days by MTS assay. In kind it is functional, cell-based. Conditions: for Activity: dose 1000-100000 nM, time 4.0 day. A general note: Tetrazolium dyes change colour on reduction, which living cells bring about.
A further test addresses Vimentin (Homo sapiens, UniProt P08670). Description: Binding affinity to his-tagged recombinant Vimentin (unknown origin) assessed as dissociation constant by ELISA analysis. On the technique in general: In an ELISA, binding on a coated surface is turned into a signal by an enzyme label.
For a further test, the system named is NCI-H460. Kind of test: Inhibition of colony formation in human NCI-H460 cells at 20 uM incubated for 8 days by crystal violet staining based analysis. In kind it is functional, cell-based. Conditions: time 8.0 day.

Vimentin, sequence (P08670 whole entry): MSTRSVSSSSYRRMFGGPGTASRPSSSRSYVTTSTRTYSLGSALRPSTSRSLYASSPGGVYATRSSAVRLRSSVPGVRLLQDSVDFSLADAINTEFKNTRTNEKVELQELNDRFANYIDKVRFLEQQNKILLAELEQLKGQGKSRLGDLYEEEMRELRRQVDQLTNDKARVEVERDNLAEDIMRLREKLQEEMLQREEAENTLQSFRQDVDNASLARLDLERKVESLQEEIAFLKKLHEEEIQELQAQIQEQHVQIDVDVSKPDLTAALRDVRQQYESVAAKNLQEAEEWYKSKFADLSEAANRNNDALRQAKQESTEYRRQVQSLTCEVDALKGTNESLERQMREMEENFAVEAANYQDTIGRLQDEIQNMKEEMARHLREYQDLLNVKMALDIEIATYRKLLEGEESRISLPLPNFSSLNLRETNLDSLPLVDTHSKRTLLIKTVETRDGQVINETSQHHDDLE

In the case of `COCCN(CC(=O)N[C@H](CCCCN)C(=O)N[C@H](CCSC)C(=O)NCCCCC(NC(=O)CNC(=O)[C@@H](CCSC)NC(=O)[C@@H](CCCCN)NC(=O)CN(CCOC)C(=O)CN(Cc1ccc2c(c1)OCO2)C(=O)CN(CC(C)C)C(=O)CN(CCCCN)C(=O)CN(CCCCN)C(=O)CN(CC(C)C)C(=O)CNc1ccc(C(=O)c2ccccc2)cc1)C(N)=O)C(=O)CN(Cc1ccc2c(c1)OCO2)C(=O)CN(CC(C)C)C(=O)CN(CCCCN)C(=O)CN(CCCCN)C(=O)CN(CC(C)C)C(=O)CNc1ccc(C(=O)c2ccccc2)cc1` (stereo partly specified), the Activity entry in the test on NCI-H1299 is “Dose-Dependent Effect”.
For orientation: IC50 means the point on the concentration scale where inhibition reaches its midpoint. Turning to `COCCN(CC(=O)N[C@H](CCCCN)C(=O)N[C@H](CCSC)C(=O)NCC(=O)NCCCCC(NC(=O)CNC(=O)[C@@H](CCSC)NC(=O)[C@@H](CCCCN)NC(=O)CN(CCOC)C(=O)CN(Cc1ccc2c(c1)OCO2)C(=O)CN(CC(C)C)C(=O)CN(CCCCN)C(=O)CN(CCCCN)C(=O)CN(CC(C)C)C(=O)CNc1ccc(C(=O)c2ccccc2)cc1)C(N)=O)C(=O)CN(Cc1ccc2c(c1)OCO2)C(=O)CN(CC(C)C)C(=O)CN(CCCCN)C(=O)CN(CCCCN)C(=O)CN(CC(C)C)C(=O)CNc1ccc(C(=O)c2ccccc2)cc1` (stereo partly specified), in the test with NCI-H1299 (NCI-H1299, 96 h), the IC50 is 6 µM. The Activity entry in the test with NCI-H1299 was “Dose-Dependent Effect”.
On to `COCCN(CC(=O)N[C@H](CCCCN)C(=O)N[C@H](CCSC)C(=O)NCC(=O)NCCCCC(NC(=O)CNC(=O)CNC(=O)[C@@H](CCSC)NC(=O)[C@@H](CCCCN)NC(=O)CN(CCOC)C(=O)CN(Cc1ccc2c(c1)OCO2)C(=O)CN(CC(C)C)C(=O)CN(CCCCN)C(=O)CN(CCCCN)C(=O)CN(CC(C)C)C(=O)CNc1ccc(C(=O)c2ccccc2)cc1)C(N)=O)C(=O)CN(Cc1ccc2c(c1)OCO2)C(=O)CN(CC(C)C)C(=O)CN(CCCCN)C(=O)CN(CCCCN)C(=O)CN(CC(C)C)C(=O)CNc1ccc(C(=O)c2ccccc2)cc1` (stereo partly specified), for which, in the test with NCI-H1299, the Activity entry is “Dose-Dependent Effect”.
Regarding `COCCN(CC(=O)N[C@H](CCCCN)C(=O)N[C@H](CCSC)C(=O)NCCOCCOCC(=O)NCCOCCOCC(=O)NCCCCC(NC(=O)COCCOCCNC(=O)COCCOCCNC(=O)[C@@H](CCSC)NC(=O)[C@@H](CCCCN)NC(=O)CN(CCOC)C(=O)CN(Cc1ccc2c(c1)OCO2)C(=O)CN(CC(C)C)C(=O)CN(CCCCN)C(=O)CN(CCCCN)C(=O)CN(CC(C)C)C(=O)CNc1ccc(C(=O)c2ccccc2)cc1)C(N)=O)C(=O)CN(Cc1ccc2c(c1)OCO2)C(=O)CN(CC(C)C)C(=O)CN(CCCCN)C(=O)CN(CCCCN)C(=O)CN(CC(C)C)C(=O)CNc1ccc(C(=O)c2ccccc2)cc1` (stereo partly specified), the Activity result in the test with NCI-H1299 is “Dose-Dependent Effect”.
Regarding `COCCN(CC(=O)N[C@H](CCCCN)C(=O)N[C@H](CCSC)C(=O)NCC(=O)NCC(=O)NCCCCC(NC(=O)CNC(=O)CNC(=O)[C@@H](CCSC)NC(=O)[C@@H](CCCCN)NC(=O)CN(CCOC)C(=O)CN(Cc1ccc2c(c1)OCO2)C(=O)CN(CC(C)C)C(=O)CN(CCCCN)C(=O)CN(CCCCN)C(=O)CN(CC(C)C)C(=O)CNc1ccc(C(=O)c2ccccc2)cc1)C(N)=O)C(=O)CN(Cc1ccc2c(c1)OCO2)C(=O)CN(CC(C)C)C(=O)CN(CCCCN)C(=O)CN(CCCCN)C(=O)CN(CC(C)C)C(=O)CNc1ccc(C(=O)c2ccccc2)cc1` (stereo partly specified), the Activity result in the test with NCI-H1299 was “Dose-Dependent Effect”.
By Kd is commonly meant the constant that tells how readily two partners part at equilibrium. On to `COCCN(CC(=O)N[C@H](CCCCN)C(=O)N[C@H](CCSC)C(=O)NCCCCC(NC(=O)[C@@H](CCSC)NC(=O)[C@@H](CCCCN)NC(=O)CN(CCOC)C(=O)CN(Cc1ccc2c(c1)OCO2)C(=O)CN(CC(C)C)C(=O)CN(CCCCN)C(=O)CN(CCCCN)C(=O)CN(CC(C)C)C(=O)CNc1ccc(C(=O)c2ccccc2)cc1)C(N)=O)C(=O)CN(Cc1ccc2c(c1)OCO2)C(=O)CN(CC(C)C)C(=O)CN(CCCCN)C(=O)CN(CCCCN)C(=O)CN(CC(C)C)C(=O)CNc1ccc(C(=O)c2ccccc2)cc1` (stereo partly specified), for which the Activity result in the test with NCI-H1299 is “Dose-Dependent Effect”. Moreover, at Vimentin, the Kd worked out at 1 µM. In addition, the inhibition entry in the test with NCI-H460 was “Active”.
For `COCCN(CC(=O)N[C@H](CCCCN)C(=O)N[C@H](CCSC)C(=O)NCC(=O)NCCCCC(NC(=O)COCCOCCNC(=O)CNC(=O)[C@@H](CCSC)NC(=O)[C@@H](CCCCN)NC(=O)CN(CCOC)C(=O)CN(Cc1ccc2c(c1)OCO2)C(=O)CN(CC(C)C)C(=O)CN(CCCCN)C(=O)CN(CCCCN)C(=O)CN(CC(C)C)C(=O)CNc1ccc(C(=O)c2ccccc2)cc1)C(N)=O)C(=O)CN(Cc1ccc2c(c1)OCO2)C(=O)CN(CC(C)C)C(=O)CN(CCCCN)C(=O)CN(CCCCN)C(=O)CN(CC(C)C)C(=O)CNc1ccc(C(=O)c2ccccc2)cc1` (stereo partly specified), the Activity entry with NCI-H1299 was “Dose-Dependent Effect”.
For the compound `COCCN(CC(=O)N[C@H](CCCCN)C(=O)N[C@H](CCSC)C(=O)NCCOCCOCC(=O)NCCCCC(NC(=O)COCCOCCNC(=O)[C@@H](CCSC)NC(=O)[C@@H](CCCCN)NC(=O)CN(CCOC)C(=O)CN(Cc1ccc2c(c1)OCO2)C(=O)CN(CC(C)C)C(=O)CN(CCCCN)C(=O)CN(CCCCN)C(=O)CN(CC(C)C)C(=O)CNc1ccc(C(=O)c2ccccc2)cc1)C(N)=O)C(=O)CN(Cc1ccc2c(c1)OCO2)C(=O)CN(CC(C)C)C(=O)CN(CCCCN)C(=O)CN(CCCCN)C(=O)CN(CC(C)C)C(=O)CNc1ccc(C(=O)c2ccccc2)cc1` (stereo partly specified), the Activity result with NCI-H1299 is “Dose-Dependent Effect”.
